# Measured values reported in patent publication US10189809B2, “SGC stimulators” (Ironwood Pharmaceuticals, Inc., priority 2010, dated 2019).
# Like-named read-outs stand apart in the source and are kept apart here.
# Assays:
# [1] = biological target: soluble guanylate cyclase (sGC) (Homo sapiens (Human), UniProt Q02108+Q02153); experiment: sGC-HEK-cGMP assay run with SNP incubation (HEK WC assay); assay type: cell-based; settings: for EC50: in the presence of 10 uM SNP
# Protocol: Human embryonic kidney cells (HEK293), endogenously expressing soluble guanylate cyclase (sGC), were used to evaluate the activity of test compounds. Compounds stimulating the sGC receptor should cause an increase in the intracellular concentration of cGMP. HEK 293 cells were seeded in Dulbecco's Modification of Eagle's Medium supplemented with fetal bovine serum (10% final) and L-glutamine (2 mM final) in a 200 μL volume at a density of 1×10^5 cells/well in a poly-D-lysine coated 96 well flat bottom plate and grown overnight at 37° C. Medium was aspirated and cells were washed with 1× Hank's Buffered Saline Salt Solution (200 μL). Cells were then incubated for 15 minutes at 37° C. with 0.5 mM 3-isobutyl-1-methylxanthine (200 μL). Test article and sodium nitroprusside were then added to the assay mixture (2 μL each) and incubated at 37° C. for 10 minutes. After the 10 minute incubation, the assay mixture was aspirated and 0.1M HCl (200 μL) was added to the cells. The plate was incubated at 4° C. for 30 minutes in the 0.1M HCl to stop the reaction and lysed the cells. The plates were then centrifuged at 1,200 g for 5 minutes at room temperature. Supernatants were collected and transferred to a new flat bottom 96 well plate for analysis. Vehicle controls were carried out using DMSO (1%). […] Samples were diluted with an equal volume of 1 M Ammonium Acetate (pH 7) to neutralize samples for better chromatography. […] EC50 values were calculated from concentration-response curves generated with GraphPad Prism Software.
# [2] = biological target: Human soluble guanylate cyclase enzyme (hsGC) (Homo sapiens (Human), UniProt Q02108+Q02153); experiment: Purified human sGC enzyme activity assay; assay type: biochemical
# Protocol: Human soluble guanylate cyclase enzyme (hsGC) obtained from Enzo Inc. (P/N: ALX-201-177) was used to evaluate the activity of test compounds. The assay reactions contained 0.1 M Tris (pH 8.0), 0.5 mg/mL BSA (pH 8.0), 2 mM DTT, 2 mM MgCl2, 300 μM GTP, 1 mM 3-isobutyl-1-methylxanthine (IBMX) and 5 ng human soluble guanylate cyclase enzyme. Test compounds in DMSO were then added (2 μL, 10 or 30 μM final concentration) and incubated (200 μL, 96-well plate format) at 37° C. for 30 minutes. The controls were carried out using 2 μL DMSO. After the 30 minute incubation, the reaction was stopped with the addition of 200 μL of cold methanol. The plate was then centrifuged at 3,200 rpm for 10 minutes at room temperature. Supernatants (200 μL) were collected and transferred to a new 96 well plate for analysis.
# An 8 point cGMP (Sigma-Aldrich P/N: G6129) standard curve was prepared in assay buffer ranging from 0.156-20 μM. Samples for the cGMP standard curve were then diluted with an equal volume of methanol resulting in final cGMP concentrations of 0.078-10 μM.
# The cGMP standard curve was generated using GraphPad Prism Software.
# Calculations: Specific Activity was determined by the amount of cGMP formed (nmoles) per mg of sGC per min. Enzyme “fold-change” was calculated by dividing Specific Activity for test compounds by Specific Activity of DMSO controls.
# [3] = read-out: HEK WC Assay (% Emax at 1 μM with 10 uM SNP)
# [4] = read-out: HEK WC Assay (% Emax at 10 μM with 10 uM SNP)
# [5] = read-out: HEK WC Assay (% Emax at 30 μM with 10 uM SNP)
# Sequence of Human soluble guanylate cyclase enzyme (hsGC) (Q02153 whole entry): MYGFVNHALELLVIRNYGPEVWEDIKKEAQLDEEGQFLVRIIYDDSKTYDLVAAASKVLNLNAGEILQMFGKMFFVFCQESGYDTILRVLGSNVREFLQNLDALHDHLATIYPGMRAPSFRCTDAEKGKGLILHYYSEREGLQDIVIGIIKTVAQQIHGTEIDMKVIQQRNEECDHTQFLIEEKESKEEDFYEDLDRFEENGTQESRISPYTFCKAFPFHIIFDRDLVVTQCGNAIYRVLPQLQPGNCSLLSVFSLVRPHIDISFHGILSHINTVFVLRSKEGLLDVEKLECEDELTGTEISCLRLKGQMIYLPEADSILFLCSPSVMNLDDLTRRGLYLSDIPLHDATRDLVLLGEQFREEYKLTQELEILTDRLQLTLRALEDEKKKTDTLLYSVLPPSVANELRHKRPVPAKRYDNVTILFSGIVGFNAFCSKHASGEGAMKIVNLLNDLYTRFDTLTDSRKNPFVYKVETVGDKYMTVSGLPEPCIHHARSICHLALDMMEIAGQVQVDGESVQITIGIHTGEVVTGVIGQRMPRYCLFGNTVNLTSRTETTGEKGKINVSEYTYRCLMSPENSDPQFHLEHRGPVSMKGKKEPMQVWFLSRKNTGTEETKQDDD
# Sequence of Human soluble guanylate cyclase enzyme (hsGC) (Q02108 whole entry): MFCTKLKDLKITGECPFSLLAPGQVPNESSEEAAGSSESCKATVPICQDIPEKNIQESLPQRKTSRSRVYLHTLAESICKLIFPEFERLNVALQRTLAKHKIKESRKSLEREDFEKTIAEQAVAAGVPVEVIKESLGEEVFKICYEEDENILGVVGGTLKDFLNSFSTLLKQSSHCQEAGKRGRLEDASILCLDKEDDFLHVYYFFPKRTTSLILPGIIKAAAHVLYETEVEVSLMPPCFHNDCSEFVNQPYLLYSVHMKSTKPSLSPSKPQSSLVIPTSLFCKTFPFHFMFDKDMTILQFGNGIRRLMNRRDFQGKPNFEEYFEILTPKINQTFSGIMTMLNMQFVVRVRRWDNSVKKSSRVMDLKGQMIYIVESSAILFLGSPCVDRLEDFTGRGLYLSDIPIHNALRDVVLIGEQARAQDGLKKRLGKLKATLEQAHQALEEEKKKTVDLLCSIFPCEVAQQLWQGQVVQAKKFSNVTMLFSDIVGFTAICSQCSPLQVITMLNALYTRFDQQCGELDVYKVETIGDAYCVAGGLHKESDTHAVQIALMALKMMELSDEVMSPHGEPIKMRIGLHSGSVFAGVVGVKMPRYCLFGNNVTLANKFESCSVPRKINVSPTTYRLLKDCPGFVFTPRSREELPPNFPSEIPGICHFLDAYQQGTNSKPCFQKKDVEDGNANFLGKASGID
# Sequence of soluble guanylate cyclase (sGC) (Q02153 whole entry): as the sequence (Q02153 whole entry) above
# Sequence of soluble guanylate cyclase (sGC) (Q02108 whole entry): as the sequence (Q02108 whole entry) above
EC50 [1],"Emax [1, 3]","Emax [1, 4]","Emax [1, 5]",Compound,also measured
< 20 µM,40 to 60%,100 to 120%,80 to 100%,CC(C)(CCl)C(=O)Nc1cnc(-c2cc(-c3ccon3)n(Cc3ccccc3F)n2)nc1N [Compound I-268],–
300 to 600 µM,0 to 10%,0 to 10%,0 to 10%,Oc1cc(O)nc(-c2cc(-c3ccon3)n(Cc3ccccc3F)n2)n1 [Compound I-261],–
–,20 to 40%,60 to 80%,80 to 100%,Fc1ccccc1Cn1nc(-c2ncc(F)c(S)n2)cc1-c1ccon1 [Compound I-267],–
< 20 µM,20 to 40%,60 to 80%,60 to 80%,Oc1nc(-c2cc(-c3ccon3)n(Cc3ccccc3F)n2)ncc1Cl [Compound I-266],–
–,–,40 to 60%,40 to 60%,CC(C)(O)c1cnc(-c2cc(-c3ncco3)n(Cc3ccccc3F)n2)nc1N [Compound I-146],–
< 20 µM,20 to 40%,60 to 80%,60 to 80%,Nc1nc(-c2cc(-c3ccon3)n(Cc3ccccc3F)n2)ncc1N1Cc2ccccc2C1=O [Compound I-259],–
< 20 µM,40 to 60%,60 to 80%,60 to 80%,C=C(C)C(=O)Nc1cnc(-c2cc(-c3ccon3)n(Cc3ccccc3F)n2)nc1N [Compound I-258],–
< 20 µM,10 to 20%,40 to 60%,60 to 80%,CC(C)(C(=O)Nc1cnc(-c2cc(-c3ccon3)n(Cc3ccccc3F)n2)nc1N)n1cncn1 [Compound I-270],–
–,–,0 to 10%,10 to 20%,Fc1ccccc1Cn1nc(-c2ccccn2)cc1-n1cccn1 [Compound I-286],–
< 20 µM,–,40 to 60%,60 to 80%,N#Cc1cnc(-c2cc(-c3ncco3)n(Cc3ccccc3F)n2)nc1O [Compound I-155],–
100 to 300 µM,0 to 10%,0 to 10%,10 to 20%,Nc1nc(-c2cc(-c3ncco3)n(Cc3ccccc3F)n2)ncc1N=C(c1ccccc1)c1ccccc1 [Compound I-269],–
100 to 300 µM,0 to 10%,10 to 20%,10 to 20%,CC(C)(C)[S+]([O-])Nc1cnc(-c2cc(-c3ccon3)n(Cc3ccccc3F)n2)nc1N[S+]([O-])C(C)(C)C (centres unmarked) [Compound I-250],–
–,–,60 to 80%,60 to 80%,Nc1ccnc(-c2cc(-c3ccco3)n(Cc3ccccc3F)n2)n1 [Compound I-284],–
–,–,–,–,CS(=O)(=O)c1ccc(-c2cc(-c3ccccn3)nn2Cc2ccccc2F)nc1 [Compound I-73],Emax at 10 µM ([1]; read-out: HEK WC Assay (% Emax at 10 μM/with 10 uM SNP)): 0 to 10%; Emax at 30 µM ([1]; read-out: HEK WC Assay (% Emax at 30 μM/with 10 uM SNP)): 0 to 10%
–,–,–,–,N#Cc1ccc(-c2cc(-c3ccccn3)nn2Cc2ccccc2F)cc1 [Compound I-17],"sGC Enzyme (specific activity at 10 μM) ([2]; 10 μM compound): B (B = 50 to <100); sGC Enzyme (fold increase at 10 μM without SNP) ([2]; 10 μM compound, without SNP): A (A = no increase to <2 fold increase); sGC Enzyme (specific activity at 30 μM) ([2]; 30 μM compound): B (B = 50 to <100); sGC Enzyme (fold increase at 30 μM without SNP) ([2]; 30 μM compound, without SNP): A (A = no increase to <2 fold increase)"
300 to 600 µM,20 to 40%,40 to 60%,0 to 10%,CC(C)(C)C(=O)Nc1cnc(-c2cc(-c3ccon3)n(Cc3ccccc3F)n2)nc1 [Compound I-264],–
60 to 100 µM,10 to 20%,20 to 40%,20 to 40%,CC(C)(Oc1ccccc1)C(=O)Nc1cnc(-c2cc(-c3ccon3)n(Cc3ccccc3F)n2)nc1N [Compound I-230],–
< 20 µM,80 to 100%,100 to 120%,80 to 100%,CC1(C(=O)Nc2cnc(-c3cc(-c4ccon4)n(Cc4ccccc4F)n3)nc2N)CC1(Cl)Cl (centres unmarked) [Compound I-260],–

EC50 [1],"Emax [1, 3]","Emax [1, 4]","Emax [1, 5]",Compound,also measured
< 20 µM,20 to 40%,40 to 60%,60 to 80%,"CN(C)/C=N/c1cnc(-c2cc(-c3ccon3)n(Cc3ccccc3F)n2)nc1 [Compound I-249, N′-(2-(1-(2-fluorobenzyl)-5-(isoxazol-3-yl)-1H-pyrazol-3-yl)pyrimidin-5-yl)-N,N-dimethylformimidamide]",–
20 to 40 µM,10 to 20%,20 to 40%,20 to 40%,CC(C)(C)S(=O)(=O)Nc1cnc(-c2cc(-c3ccon3)n(Cc3ccccc3F)n2)nc1N [Compound I-251],–
–,–,20 to 40%,20 to 40%,CS(=O)(=O)Nc1cnc(-c2cc(-c3ccon3)n(Cc3ccccc3F)n2)nc1N [Compound I-145],–
40 to 60 µM,20 to 40%,20 to 40%,20 to 40%,CC(C)(C)OC(=O)n1c(=O)[nH]c2nc(-c3cc(-c4ccon4)n(Cc4ccccc4F)n3)ncc21 [Compound I-312],–
< 20 µM,–,40 to 60%,60 to 80%,Fc1ccccc1Cn1nc(-c2nc(Cl)cc(-c3cccnc3)n2)cc1-c1ccon1 [Compound I-301],–
–,–,–,–,"COc1ccc(-c2cc(-c3ncccn3)nn2Cc2ccccc2F)cn1 [Compound I-77, 2-(1-(2-fluorobenzyl)-5-(6-methoxypyridin-3-yl)-1H-pyrazol-3-yl)pyrimidine]","sGC Enzyme (fold increase at 10 μM) ([2]; 10 μM compound, without the addition of SNP): A (A = no increase to <2 fold increase); sGC Enzyme (fold increase at 30 μM) ([2]; 30 μM compound, without the addition of SNP): A (A = no increase to <2 fold increase)"
600 to 900 µM,0 to 10%,0 to 10%,0 to 10%,O=c1cc(O)oc2nc(-c3cc(-c4ccon4)n(Cc4ccccc4F)n3)nc(O)c12 [Compound I-248],–
< 20 µM,40 to 60%,40 to 60%,60 to 80%,CCCC(F)(F)C(=O)Nc1cnc(-c2cc(-c3ccon3)n(Cc3ccccc3F)n2)nc1N [Compound I-252],–
900 to 1200 µM,0 to 10%,0 to 10%,0 to 10%,O=[N+]([O-])c1c(O)nc(-c2cc(-c3ccon3)n(Cc3ccccc3F)n2)nc1O [Compound I-282],–
< 20 µM,60 to 80%,100 to 120%,100 to 120%,C=CC(C)(C)C(=O)Nc1cnc(-c2cc(-c3ccon3)n(Cc3ccccc3F)n2)nc1N [Compound I-246],–
–,–,20 to 40%,20 to 40%,Fc1ccccc1Cn1nc(-c2nc(Cl)cc(C(F)(F)F)n2)cc1-c1ccon1 [Compound I-273],–
–,–,100 to 120%,80 to 100%,Nc1nc(-c2cc(-c3ccon3)n(Cc3ccccc3F)n2)ncc1NC(=O)C1CCCCC1 [Compound I-157],–
< 20 µM,40 to 60%,60 to 80%,80 to 100%,O=S(=O)(c1ccccc1)c1cnc(-c2cc(-c3ncco3)n(Cc3ccccc3F)n2)nc1O [Compound I-271],–
60 to 100 µM,10 to 20%,20 to 40%,20 to 40%,O=S(=O)(c1cc(Cl)ccc1Cl)c1cnc(-c2cc(-c3ccon3)n(Cc3ccccc3F)n2)nc1O [Compound I-242],–
< 20 µM,40 to 60%,100 to 120%,100 to 120%,[2H]C([2H])([2H])C(=O)Nc1cnc(-c2cc(-c3ccon3)n(Cc3ccccc3F)n2)nc1N [Compound I-263],–
< 20 µM,40 to 60%,60 to 80%,80 to 100%,CC(C)(CO)C(=O)Nc1cnc(-c2cc(-c3ccon3)n(Cc3ccccc3F)n2)nc1N [Compound I-265],–
< 20 µM,20 to 40%,60 to 80%,80 to 100%,CCC(C)(C)C(=O)Nc1cnc(-c2cc(-c3ccon3)n(Cc3ccccc3F)n2)nc1N [Compound I-247],–
< 20 µM,20 to 40%,60 to 80%,60 to 80%,Nc1cnc(-c2cc(-c3ccon3)n(Cc3ccccc3F)n2)nc1 [Compound I-262],–

Compound,EC50 [1],"Emax [1, 3]","Emax [1, 4]","Emax [1, 5]",also measured
CN(C)C(=O)Oc1cnc(-c2cc(-c3ccon3)n(Cc3ccccc3F)n2)nc1 [Compound I-274],–,20 to 40%,60 to 80%,60 to 80%,–
